ChEMBL document CHEMBL3272151, “Quantitative structure-activity relationship of chymotrypsin-ligand interactions” (J Med Chem, 1977)

Experiments:
Conditions in all cases: Homo sapiens
[1] = Binding affinity to chymotrypsin (unknown origin)
[2] = Binding affinity to chymotrypsin (unknown origin) assessed as deacetylation
[3] = Binding affinity to chymotrypsin (unknown origin) assessed as hydrolysis

SMILES	log K [2]	log(1/Km) [1]	logKcat [3]	also measured
CCOC(=O)[C@@H](Cc1ccc(O)cc1)NC(C)=O				log1/Ki [1]: 2.4
O=C(CCCCl)Oc1ccc([N+](=O)[O-])cc1	-1.27			
O=C(N[C@@H](Cc1ccccc1)C(=O)Oc1ccc([N+](=O)[O-])cc1)OCc1ccccc1	1.59	6.32		
CC(=O)N[C@H](C(=O)Oc1ccc([N+](=O)[O-])cc1)C(C)C		3.31		
COC(=O)[C@@H](Cc1ccccc1)NC(C)=O				log1/Ki [1]: 2.64
O=C(CCc1ccccc1)Oc1ccc([N+](=O)[O-])cc1	-0.73			
CCC[C@@H](NC(=O)CCl)C(=O)OC				log1/Ki [1]: 1.23
O=C(Cc1c[nH]c2ccccc12)Oc1ccc([N+](=O)[O-])cc1	-2.52			
Nc1ccc(OC(=O)CNC(=O)c2ccccc2)cc1		3.77	-0.3	
CCCC[C@H](NC(=O)OCc1ccccc1)C(=O)Oc1ccc([N+](=O)[O-])cc1	1.1	5.24		
C[C@@H](NC=O)C(=O)Oc1ccc([N+](=O)[O-])cc1	-1.14	5.21		
CC(=O)c1ccc(OC(=O)CNC(=O)c2ccccc2)cc1		4.51	-0.28	
CCCCC[C@H](NC(C)=O)C(=O)OC		2.79	1.13	
CC(=O)NCCCC(=O)Oc1ccc([N+](=O)[O-])cc1	-2.21			
O=C(CCCc1ccccc1)Oc1ccc([N+](=O)[O-])cc1	-0.87			
COc1ccc(OC(=O)[C@H](Cc2ccccc2)NS(C)(=O)=O)cc1		4.82	1.54	
CS(=O)(=O)N[C@@H](Cc1ccccc1)C(=O)Oc1ccc([N+](=O)[O-])cc1		5.37		log K [3]: 1.56
C[C@H](NC(=O)OCc1ccccc1)C(=O)Oc1ccc([N+](=O)[O-])cc1	0.48	4.7		
CCC[C@H](NC(C)=O)C(=O)OC(C)C		1.51	0.46	
CC[C@@H](C)OC(=O)CNC(=O)c1ccccc1		2.7		
O=C(CNC(=O)c1ccccc1)OCc1ccncc1		4.04	-0.25	
O=C(CNC(=O)c1ccccc1)Oc1cccc([N+](=O)[O-])c1		4.17	-0.28	

SMILES	log K [2]	log(1/Km) [1]	logKcat [3]	also measured
CCCCCC[C@H](NC(C)=O)C(=O)OC		2.53	0.79	
CCOC(=O)C(NC(C)=O)C(=O)OCC		1.51	-0.15	
COC(=O)[C@H](C)NC(=O)c1ccccc1N		2.33	-0.62	
CC(C)C[C@H](NC(=O)OCc1ccccc1)C(=O)Oc1ccc([N+](=O)[O-])cc1	0.92	5.32		
CC[C@H](C)OC(=O)[C@H](Cc1ccccc1)NC(C)=O		3.04	1.55	
COC(=O)[C@H](C)NC(=O)c1cccs1		1.82	-0.34	
Cc1ccc(OC(=O)[C@H](Cc2ccccc2)NS(C)(=O)=O)cc1		4.7		log K [3]: 1.56
CC(=O)N[C@@H](Cc1ccccc1)C(=O)O[C@H](C)c1ccccc1		4.3	2.02	
O=C(CCc1c[nH]c2ccccc12)Oc1ccc([N+](=O)[O-])cc1	-0.47			
CCCCC(=O)Oc1ccc([N+](=O)[O-])cc1	-1.77			
COC(=O)[C@H](C)NC(=O)c1ccc2ccccc2n1		3.66	-2.4	
COC(=O)[C@H](C)NC(=O)c1ccncc1		1.54	-0.38	
COCC(=O)Oc1ccc([N+](=O)[O-])cc1	-0.46			
CC(C)C[C@@H](NC(=O)OCc1ccccc1)C(=O)Oc1ccc([N+](=O)[O-])cc1	-0.96	5.62		
COC(=O)[C@H](NC(=O)CCl)C(C)C				log1/Ki [1]: 0.77
CCCCOC(=O)CNC(=O)c1ccccc1		2.95	-0.76	
CCCOC(=O)CNC(=O)c1ccccc1		2.72	-0.9	
CC[C@@H](C)OC(=O)[C@H](Cc1ccccc1)NC(C)=O		2.76	1.98	
CCOC(=O)[C@@H](NC(C)=O)c1ccccc1		2.48	-0.05	
O=C(CCCc1c[nH]c2ccccc12)Oc1ccc([N+](=O)[O-])cc1	-0.83			
COC(=O)[C@@H](C)NC(=O)c1cccnc1		2.22		
CCC[C@H](NC(C)=O)C(=O)OCCCl		3.1	0.57	

SMILES	log K [2]	log(1/Km) [1]	logKcat [3]	also measured
O=C(CCCCCl)Oc1ccc([N+](=O)[O-])cc1	-1.37			
CCOC(=O)CNC(=O)c1ccccc1		2.64		
CC(C)CC(=O)Oc1ccc([N+](=O)[O-])cc1	-2.9			
O=CNCC(=O)Oc1ccc([N+](=O)[O-])cc1	-0.61	4.8		
CCC[C@@H](NC(C)=O)C(=O)OC				log1/Ki [1]: 0.95
O=C(CNC(=O)c1ccccc1)Oc1ccc(F)cc1		3.85	-0.28	
CC(C)[C@H](NC(=O)OCc1ccccc1)C(=O)Oc1ccc([N+](=O)[O-])cc1	-0.93	4.75		
O=C(CNC(=O)OCc1ccccc1)Oc1ccc([N+](=O)[O-])cc1	-0.39	5.31		
CC(C)C(=O)Oc1ccc([N+](=O)[O-])cc1	-2.45			
CC(C)OC(=O)CNC(=O)c1ccccc1		2.69	-1.32	
O=COc1ccc([N+](=O)[O-])cc1	0.39			
O=C(Oc1ccc([N+](=O)[O-])cc1)c1cccc([N+](=O)[O-])c1	-2.85			
CCCCCCC(=O)Oc1ccc([N+](=O)[O-])cc1	-1.21			
CC[C@@H](NC(=O)OCc1ccccc1)C(=O)Oc1ccc([N+](=O)[O-])cc1	-1.45	5.71		
CC(C)(C)CC(=O)Oc1ccc([N+](=O)[O-])cc1	-3.82			
COC(=O)[C@H](NC(=O)c1ccccc1)C(C)C				log1/Ki [1]: 2.28
CC(=O)c1ccc(OC(=O)[C@H](Cc2ccccc2)NS(C)(=O)=O)cc1		4.89	1.54	
O=C(CNC(=O)c1ccccc1)Oc1ccc(Cl)cc1		3.94	-0.31	
COC(=O)[C@H](C)NC(=O)c1cccnc1		1.43	-0.24	
CC[C@H](NC(=O)OCc1ccccc1)C(=O)Oc1ccc([N+](=O)[O-])cc1	0.43	5.74		
O=C(CCCCc1ccccc1)Oc1ccc([N+](=O)[O-])cc1	-1.68			
CC(=O)N[C@@H](Cc1ccccc1)C(=O)Oc1ccc([N+](=O)[O-])cc1		4.62	1.89	

SMILES	log K [2]	log(1/Km) [1]	logKcat [3]	also measured
CCCCCCCC(=O)Oc1ccc([N+](=O)[O-])cc1	-1.47			
O=C(CCCl)Oc1ccc([N+](=O)[O-])cc1	-1.67			
CC(=O)N[C@@H](Cc1ccccc1)C(=O)O[C@@H](C)C1CCCCC1		3.28	1.37	
O=C(CI)Oc1ccc([N+](=O)[O-])cc1	-0.1			
CC(=O)N[C@H](C(=O)OCCCl)C(C)C		1.72	-0.64	
NC(=O)C[C@H](NC(=O)OCc1ccccc1)C(=O)Oc1ccc([N+](=O)[O-])cc1	1.53	4.87		
O=C(CNC(=O)c1ccccc1)Oc1ccc([N+](=O)[O-])cc1		4.06	-0.31	
CC(=O)N[C@@H](Cc1ccccc1)C(=O)O[C@H](C)C1CCCCC1		3.31	1.29	
COC(=O)[C@@H](C)NC(=O)c1ccccc1		2.48		
CCC[C@H](NC(=O)CCl)C(=O)OC		2.3		
COC(=O)[C@H](C)NC(C)=O		0.21	0.11	
CCC[C@@H](NC(=O)OCc1ccccc1)C(=O)Oc1ccc([N+](=O)[O-])cc1	-0.82	5.5		
O=C(Cc1ccccc1)Oc1ccc([N+](=O)[O-])cc1	-1.65			
COC(=O)[C@H](C)NC(=O)c1ccccc1		2.01	-0.64	
O=C(CNC(=O)c1ccccc1)Oc1ccccc1		3.87	-0.31	
COC(=O)[C@@H](Cc1ccccc1)NC=O		3.6		
CCCC(=O)NCC(=O)Oc1ccc([N+](=O)[O-])cc1	-0.06	3.87		
CC(C)COC(=O)CNC(=O)c1ccccc1		2.62	-0.78	
CC(=O)Oc1ccc([N+](=O)[O-])cc1	-2			
CCCC(=O)Oc1ccc([N+](=O)[O-])cc1	-2.22			
CCC(=O)NCC(=O)Oc1ccc([N+](=O)[O-])cc1	-0.25	3.95		
COC(=O)[C@H](NC(C)=O)C(C)C				log1/Ki [1]: 0.71

SMILES	log K [2]	log(1/Km) [1]	logKcat [3]	also measured
COC(=O)[C@@H](C)NC(=O)c1ccccc1N		2.8		
CCC[C@@H](NC(=O)c1ccccc1)C(=O)OC				log1/Ki [1]: 2.75
CCOC(=O)[C@H](C)NC(C)=O		0.6		
NC(=O)C[C@@H](NC(=O)OCc1ccccc1)C(=O)Oc1ccc([N+](=O)[O-])cc1	-1.65	5.84		
CCOC(=O)C[C@H](NC(C)=O)C(=O)OCC		1.64		
CC(=O)N[C@@H](C)C(=O)Oc1ccc([N+](=O)[O-])cc1		3.32		
C[C@H](NC=O)C(=O)Oc1ccc([N+](=O)[O-])cc1	-0.61	4.88		
COC(=O)[C@@H](C)NC(=O)c1cccs1		2.16		
O=C(CCl)Oc1ccc([N+](=O)[O-])cc1	0.47			
C[C@@H](NC(=O)OCc1ccccc1)C(=O)Oc1ccc([N+](=O)[O-])cc1	-1.05	5.08		
CCC[C@H](NC(=O)OCc1ccccc1)C(=O)Oc1ccc([N+](=O)[O-])cc1	0.19	5.57		
CC(C)(C)C(=O)Oc1ccc([N+](=O)[O-])cc1	-3.69			
COC(=O)[C@@H](C)NC(=O)c1ccncc1		1.57		
CC(C)[C@@H](NC(=O)OCc1ccccc1)C(=O)Oc1ccc([N+](=O)[O-])cc1	-2.1	5.13		
COC(=O)[C@@H](C)NC(=O)c1ccccn1		1.77		
O=C(N[C@H](Cc1ccccc1)C(=O)Oc1ccc([N+](=O)[O-])cc1)OCc1ccccc1	-0.74	6.42		
CCOC(=O)[C@@H](Cc1ccc(O)cc1)NC(=O)c1cccnc1				log1/Ki [1]: 3.1
CCC(=O)Oc1ccc([N+](=O)[O-])cc1	-2.1			
CCCCCC(=O)Oc1ccc([N+](=O)[O-])cc1	-1.44			
